In PubChem BioAssay (NCI):
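Test compounds were applied to cells in 96-well plates for 48 hours at 5 doses. TGI: total growth inhibition.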

Assays:
Test in all cases: inhibition of tumour cell growth, NCI panel, 48 h
[1] = tested on: TK-10 renal
[2] = tested on: OVCAR-5 ovarian
[3] = tested on: UO-31 renal
[4] = tested on: U251 CNS
[5] = tested on: MDA-MB-435
[6] = tested on: OVCAR-3 ovarian
[7] = tested on: BT-549 breast
[8] = tested on: 786-0 renal
[9] = tested on: SF-268 CNS
[10] = tested on: MDA-N
[11] = tested on: SF-539 CNS

Measured: TGI

COC(=O)C12CCCN1CCC2
> 100 µM: [1] | [2] | [3] | [4] | [5] | [6] | [7] | [8] | [9] | [10]

Cc1ccc2[nH]c3c(c2c1)C1CCC(C(C)(C)C)CC1C1C(=O)N(c2ccc(Oc4ccccc4)cc2)C(=O)C31 (stereo not given)
> 100 µM: [3] | [5] | [10]
35.4 µM: [6]
28.3 µM: [8]
84.4 µM: [1]
> 81 µM: [2]
21.6 µM: [4]
41.6 µM: [9]
64.1 µM: [7]

Cc1cc2c3c(c1)S(=O)(=O)c1cc(Cl)ccc1N3CCC2
> 100 µM: [1] | [2] | [3] | [5] | [6] | [7] | [11] | [8] | [9] | [10]

COc1ccc(OC)c([N+](=O)[O-])c1-c1nc2sc(Cl)cn2c1/C=N/N=C(N)N
38.7 µM: [7]
64.8 µM: [9]
48.7 µM: [1]
46.3 µM: [5]
> 100 µM: [4] | [8]
53.5 µM: [11]
71.7 µM: [2]
40.4 µM: [6]
33.1 µM: [3]

Cc1cnoc1/N=C1\C=C(Nc2oncc2C)C(=O)c2ccccc21
> 100 µM: [1] | [2] | [3] | [4] | [6] | [11] | [8] | [9]

Cc1cc(C)c2c(-c3ccccc3)cc(=O)[nH]c2c1
> 100 µM: [1] | [2] | [4] | [5] | [6] | [8] | [9] | [10]

COc1ccc(/C=C2\C(=O)N(C(=O)c3ccc(NC(C)=O)cc3)N=C2C)cc1OC
> 100 µM: [1] | [2] | [3] | [6] | [11] | [8] | [9]

Cc1cccc(-c2cc(=O)c3cccnc3[nH]2)c1
> 100 µM: [2] | [3] | [4] | [6] | [7] | [11] | [8] | [9]
0.191 µM: [5]

O=[N+]([O-])C(/C(Cl)=C(/Cl)N1CCOCC1)=C1\Nc2ccccc2O1
> 100 µM: [2] | [3] | [4] | [5] | [6] | [7] | [11] | [8] | [9]

COc1ccc(Nc2nc3ccccc3nc2-c2cccs2)cc1OC
> 10 µM: [1] | [2] | [3] | [4] | [5] | [6] | [11] | [8] | [9] | [10]

COC(=O)c1sc2nc(Nc3ccccc3)c(=Nc3ccccc3)sc2c1C
> 100 µM: [1] | [2] | [3] | [4] | [5] | [11] | [8] | [9] | [10]
